What was measured:
Arthus foot edema = Arthus foot edema (paw edema in rats); assay type: in vivo, Male Sprague-Dawley rats; settings: rat, oral, 100 mg/kg, 60 minutes before phlogogen; edema volume 3 hours after egg albumin i.v./anti egg albumin antiserum subplantar
Method: TEST B (Arthus foot edema)
Five male Sprague-Dawley rats weighing about 200 g were used per group.
Paw edema was induced by intravenous injection of egg albumin (0.5 mg/rat) and subplantar injection of anti egg albumin antiserum (0.1 ml/rat) in Arthus type foot edema. The test drug was suspended in methylcellulose and administered orally 60 minutes before phlogogen. Paw volume was measured with plethysmometer (Ugo Basil Co., Ltd.) by water displacement immersing the paw to the lateral malleolus. The difference of paw volume before and 3 hours after the phlogogen was designated as edema volume. The data were analyzed statistically by student's t-test.

Carrageenin foot edema = Carrageenin foot edema (paw edema in rats); assay type: in vivo, Male Sprague-Dawley rats; settings: rat, oral, 10.0 mg/kg, 60 minutes before phlogogen; edema volume 3 hours after 1% carrageenin
Method: TEST A (Carrageenin foot edema)
Male Sprague-Dawley rats weighing about 200 g were used in groups of five. Paw edema was induced by subplantar injection of 1% carrageenin (0.1 ml/rat) into the right hind paw. The test drug was suspended in 0.5% methylcellulose and administered orally 60 minutes before phlogogen. Paw volume was measured with plethysmometer (Ugo Basil Co., Ltd.) by water displacement immersing the paw to the lateral malleolus. The difference of paw volume before and 3 hours after the phlogogen was designated as edema volume. The data was analyzed statistically by student's t-test.

Question: How did the “Inhibition (%)” value (Arthus foot edema) turn out when `CN1C(C(=O)Nc2ccc(O)c(=O)cc2)=C(O)c2sccc2S1(=O)=O` [4-Hydroxy-2-methyl-N-(2-hydroxy-1-oxo-2,4,6-cycloheptatrien-5-yl)-2H-thieno[2,3-e]-1,2-thiazine-3-carboxamide 1,1-dioxide] was run?
Answer: Its value is 37.8%.

Question: For `CN1C(C(=O)Nc2cccccc2=O)=C(O)c2sccc2S1(=O)=O` [(a), 4-Hydroxy-2-methyl-N-(1-oxo-2,4,6-cycloheptatrien-2-yl)-2H-thieno[2,3-e]-1,2-thiazine-3-carboxamide 1,1-dioxide], which “Inhibition (%)” value (Carrageenin foot edema) is on record?
Answer: Its value is 63.6%.

Question: `CN1C(C(=O)Nc2cccccc2=O)=C(O)c2sc3ccccc3c2S1(=O)=O` [(b), 4-Hydroxy-2-methyl-N-(1-oxo-2,4,6-cycloheptatrien-2-yl)-2H-[1]benzothieno[2,3-e]-1,2-thiazine-3-carboxamide 1,1-dioxide] was tested. Which “Inhibition (%)” value (Carrageenin foot edema) did it give?
Answer: Its value is 34%.

Reference: patent US4563453A, “Thiazine derivatives, processes for preparation thereof and pharmaceutical composition comprising the same” (Fujisawa Pharmaceutical Co., Ltd., priority 1983, dated 1986)
